In paper PMC4354951 (European journal of medicinal chemistry, 2008):
Entries after “also recorded” stand apart in the source; their conditions may differ. One block for each compound: values may come before it.

Legend:
[1] = Chemical hydrolysis under gastric juice-like conditions; type: physicochemical
[2] = target: T1, human NPP1 (Homo sapiens, UniProt P22413); experiment: Hydrolysis by NPP1; type: biochemical
T1 sequence (P22413 1-925): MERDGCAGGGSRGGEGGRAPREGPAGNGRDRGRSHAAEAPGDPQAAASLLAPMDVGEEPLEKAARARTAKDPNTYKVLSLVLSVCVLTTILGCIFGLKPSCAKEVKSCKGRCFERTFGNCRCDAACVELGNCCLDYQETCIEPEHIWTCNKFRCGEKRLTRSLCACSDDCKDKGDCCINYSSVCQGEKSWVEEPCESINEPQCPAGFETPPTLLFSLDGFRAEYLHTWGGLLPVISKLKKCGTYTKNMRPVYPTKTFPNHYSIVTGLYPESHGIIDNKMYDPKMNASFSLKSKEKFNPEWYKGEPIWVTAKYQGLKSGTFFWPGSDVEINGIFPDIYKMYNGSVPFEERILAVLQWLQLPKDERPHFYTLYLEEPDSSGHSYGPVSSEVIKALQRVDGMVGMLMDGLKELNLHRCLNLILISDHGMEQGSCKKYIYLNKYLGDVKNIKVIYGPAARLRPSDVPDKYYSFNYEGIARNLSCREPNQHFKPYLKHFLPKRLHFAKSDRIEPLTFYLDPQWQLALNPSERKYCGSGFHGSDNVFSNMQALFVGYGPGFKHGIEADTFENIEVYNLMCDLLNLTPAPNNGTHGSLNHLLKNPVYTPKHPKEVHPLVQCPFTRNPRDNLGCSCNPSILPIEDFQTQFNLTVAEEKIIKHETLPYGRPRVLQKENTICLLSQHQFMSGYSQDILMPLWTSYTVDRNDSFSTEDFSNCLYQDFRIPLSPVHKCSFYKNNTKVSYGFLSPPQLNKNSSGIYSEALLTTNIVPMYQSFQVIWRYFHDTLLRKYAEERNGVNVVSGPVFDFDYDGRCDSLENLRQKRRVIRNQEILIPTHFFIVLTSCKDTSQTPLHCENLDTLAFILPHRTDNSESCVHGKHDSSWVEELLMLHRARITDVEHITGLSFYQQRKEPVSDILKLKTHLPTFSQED

[3] = target: T2, human NPP3 (Homo sapiens, UniProt O14638); experiment: Hydrolysis by NPP3; type: biochemical
T2 sequence (O14638 1-875): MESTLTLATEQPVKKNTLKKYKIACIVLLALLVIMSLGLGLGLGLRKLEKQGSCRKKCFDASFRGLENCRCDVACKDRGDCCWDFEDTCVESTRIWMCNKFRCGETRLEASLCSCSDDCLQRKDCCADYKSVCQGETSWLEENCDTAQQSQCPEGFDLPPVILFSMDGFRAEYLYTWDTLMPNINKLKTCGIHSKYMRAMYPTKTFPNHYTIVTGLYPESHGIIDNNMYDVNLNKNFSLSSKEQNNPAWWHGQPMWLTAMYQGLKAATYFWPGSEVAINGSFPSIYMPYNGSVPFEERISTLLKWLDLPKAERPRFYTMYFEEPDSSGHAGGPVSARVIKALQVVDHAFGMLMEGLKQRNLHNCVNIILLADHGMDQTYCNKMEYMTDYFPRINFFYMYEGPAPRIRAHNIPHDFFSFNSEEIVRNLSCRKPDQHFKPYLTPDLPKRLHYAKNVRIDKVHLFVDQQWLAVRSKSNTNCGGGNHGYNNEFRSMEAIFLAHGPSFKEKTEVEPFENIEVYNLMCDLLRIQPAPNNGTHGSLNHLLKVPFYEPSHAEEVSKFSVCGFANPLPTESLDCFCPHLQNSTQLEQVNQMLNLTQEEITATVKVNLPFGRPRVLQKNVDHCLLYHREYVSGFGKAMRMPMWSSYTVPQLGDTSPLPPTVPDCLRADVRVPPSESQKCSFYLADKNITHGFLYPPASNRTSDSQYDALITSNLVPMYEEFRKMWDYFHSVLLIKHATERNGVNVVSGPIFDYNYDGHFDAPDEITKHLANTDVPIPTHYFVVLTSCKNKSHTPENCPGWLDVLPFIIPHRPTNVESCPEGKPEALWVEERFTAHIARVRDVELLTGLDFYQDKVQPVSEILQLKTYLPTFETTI

[4] = target: T3, human NTPDase1 (Homo sapiens, UniProt P49961); experiment: Hydrolysis by NTPDase1; type: biochemical
T3 sequence (P49961 1-510): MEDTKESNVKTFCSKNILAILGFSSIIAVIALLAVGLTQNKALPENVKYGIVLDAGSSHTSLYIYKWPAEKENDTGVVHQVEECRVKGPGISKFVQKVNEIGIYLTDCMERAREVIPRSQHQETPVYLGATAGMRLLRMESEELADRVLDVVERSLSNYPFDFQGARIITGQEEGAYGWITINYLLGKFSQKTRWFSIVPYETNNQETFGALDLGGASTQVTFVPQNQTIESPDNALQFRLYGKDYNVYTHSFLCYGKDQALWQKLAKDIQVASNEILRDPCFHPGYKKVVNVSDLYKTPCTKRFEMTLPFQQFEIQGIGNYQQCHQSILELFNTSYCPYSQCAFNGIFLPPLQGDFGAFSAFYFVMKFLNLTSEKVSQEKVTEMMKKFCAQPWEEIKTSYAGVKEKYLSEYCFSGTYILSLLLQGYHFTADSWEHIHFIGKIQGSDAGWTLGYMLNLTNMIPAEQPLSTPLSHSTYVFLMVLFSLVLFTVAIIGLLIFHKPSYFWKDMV

[5] = target: T4, human NTPDase3 (Homo sapiens, UniProt O75355); experiment: Hydrolysis by NTPDase3; type: biochemical
T4 sequence (O75355 1-529): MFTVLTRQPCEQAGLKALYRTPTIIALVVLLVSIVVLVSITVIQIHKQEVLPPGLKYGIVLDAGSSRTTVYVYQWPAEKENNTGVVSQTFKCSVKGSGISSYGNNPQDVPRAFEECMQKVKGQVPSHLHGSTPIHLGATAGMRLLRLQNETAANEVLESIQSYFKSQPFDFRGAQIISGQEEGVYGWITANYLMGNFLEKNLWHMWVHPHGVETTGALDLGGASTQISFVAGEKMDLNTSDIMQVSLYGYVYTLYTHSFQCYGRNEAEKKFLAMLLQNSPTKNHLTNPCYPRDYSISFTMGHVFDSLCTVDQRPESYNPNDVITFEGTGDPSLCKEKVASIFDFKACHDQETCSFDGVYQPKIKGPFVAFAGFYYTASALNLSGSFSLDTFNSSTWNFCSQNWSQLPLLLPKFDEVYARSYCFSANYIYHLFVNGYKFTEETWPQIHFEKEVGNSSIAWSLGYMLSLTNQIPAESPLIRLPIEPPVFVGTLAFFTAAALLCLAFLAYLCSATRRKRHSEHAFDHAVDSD

[6] = target: T5, human NTPDase8 (Homo sapiens, UniProt Q5MY95); experiment: Hydrolysis by NTPDase8; type: biochemical
T5 sequence (Q5MY95 1-495): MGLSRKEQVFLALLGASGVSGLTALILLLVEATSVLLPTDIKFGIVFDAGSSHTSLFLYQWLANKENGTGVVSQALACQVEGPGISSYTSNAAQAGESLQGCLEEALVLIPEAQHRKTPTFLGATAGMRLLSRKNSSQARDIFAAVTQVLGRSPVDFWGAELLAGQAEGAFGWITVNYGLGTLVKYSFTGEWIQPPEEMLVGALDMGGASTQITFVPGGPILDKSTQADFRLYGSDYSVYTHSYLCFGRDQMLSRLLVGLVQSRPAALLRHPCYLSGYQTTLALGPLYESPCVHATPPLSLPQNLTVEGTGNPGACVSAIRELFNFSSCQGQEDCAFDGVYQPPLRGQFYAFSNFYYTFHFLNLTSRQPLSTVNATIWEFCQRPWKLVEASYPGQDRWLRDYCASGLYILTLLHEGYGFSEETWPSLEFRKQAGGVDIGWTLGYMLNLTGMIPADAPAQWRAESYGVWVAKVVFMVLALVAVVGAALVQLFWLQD

[7] = pKa and degree of ionization of phosphate/phosphonate; type: physicochemical; conditions: physiological conditions, pH 7.4
[8] = system: P2Y1R; conditions: cited from earlier work
[9] = system: P2Y2R; conditions: cited from earlier work
[10] = target: T6, human NTPDase2 (Homo sapiens, UniProt Q9Y5L3); experiment: Hydrolysis by NTPDase2; type: biochemical; conditions: 100 μM substrate; relative to ATP hydrolysis (100%)
T6 sequence (Q9Y5L3 1-495): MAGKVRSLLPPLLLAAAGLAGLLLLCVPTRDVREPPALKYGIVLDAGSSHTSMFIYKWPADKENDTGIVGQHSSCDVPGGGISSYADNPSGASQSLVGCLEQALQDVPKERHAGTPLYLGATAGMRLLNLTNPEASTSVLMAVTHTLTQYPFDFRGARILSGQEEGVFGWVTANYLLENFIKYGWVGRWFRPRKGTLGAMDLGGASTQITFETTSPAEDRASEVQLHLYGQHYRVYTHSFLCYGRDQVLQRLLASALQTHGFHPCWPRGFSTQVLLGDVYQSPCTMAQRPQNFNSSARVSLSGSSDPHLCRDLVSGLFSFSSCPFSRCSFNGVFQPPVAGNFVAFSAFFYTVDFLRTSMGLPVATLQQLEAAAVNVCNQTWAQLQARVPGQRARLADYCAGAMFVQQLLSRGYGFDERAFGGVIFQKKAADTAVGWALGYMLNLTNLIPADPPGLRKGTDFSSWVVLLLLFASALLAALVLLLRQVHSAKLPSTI

[11] = target: turkey P2Y1 receptor (Meleagris gallopavo, UniProt P49652); type: cell-based; conditions: 1321N1 cell transfectants
turkey P2Y1 receptor, sequence (P49652 whole entry): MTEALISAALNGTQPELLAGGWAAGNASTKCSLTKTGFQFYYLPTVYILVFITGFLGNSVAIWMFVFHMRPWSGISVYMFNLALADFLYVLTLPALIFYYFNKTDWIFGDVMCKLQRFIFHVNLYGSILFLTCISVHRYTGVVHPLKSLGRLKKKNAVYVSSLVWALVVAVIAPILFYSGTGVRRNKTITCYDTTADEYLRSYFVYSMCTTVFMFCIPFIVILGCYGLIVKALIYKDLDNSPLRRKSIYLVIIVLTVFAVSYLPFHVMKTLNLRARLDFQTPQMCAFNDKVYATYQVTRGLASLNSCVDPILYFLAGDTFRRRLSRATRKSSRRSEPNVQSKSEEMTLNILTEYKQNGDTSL

[12] = target: human P2Y2 receptor (Homo sapiens, UniProt P41231); experiment: Increase in [Ca2+]i in 1321N1 astrocytoma cells expressing P2Y2 receptor; type: cell-based; conditions: read-out: EC50 of analogue-induced increase in [Ca2+]i, P2Y2; 1321N1 cell transfectants
human P2Y2 receptor, sequence (P41231 whole entry): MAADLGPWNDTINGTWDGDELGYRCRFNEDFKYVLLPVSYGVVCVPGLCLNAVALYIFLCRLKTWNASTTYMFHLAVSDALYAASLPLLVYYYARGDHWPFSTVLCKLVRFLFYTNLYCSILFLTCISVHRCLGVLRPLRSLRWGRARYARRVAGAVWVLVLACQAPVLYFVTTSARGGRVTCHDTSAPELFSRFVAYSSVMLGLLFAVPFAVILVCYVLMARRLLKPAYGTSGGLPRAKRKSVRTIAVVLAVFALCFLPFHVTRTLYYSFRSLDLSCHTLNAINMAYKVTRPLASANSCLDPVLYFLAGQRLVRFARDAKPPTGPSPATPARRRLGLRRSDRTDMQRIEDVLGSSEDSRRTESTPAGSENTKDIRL

[13] = target: human P2Y4 receptor (Homo sapiens, UniProt P51582); experiment: Increase in [Ca2+]i in 1321N1 astrocytoma cells expressing P2Y4 receptor; type: cell-based; conditions: read-out: EC50 of analogue-induced increase in [Ca2+]i, P2Y4; 1321N1 cell transfectants
human P2Y4 receptor, sequence (P51582 whole entry): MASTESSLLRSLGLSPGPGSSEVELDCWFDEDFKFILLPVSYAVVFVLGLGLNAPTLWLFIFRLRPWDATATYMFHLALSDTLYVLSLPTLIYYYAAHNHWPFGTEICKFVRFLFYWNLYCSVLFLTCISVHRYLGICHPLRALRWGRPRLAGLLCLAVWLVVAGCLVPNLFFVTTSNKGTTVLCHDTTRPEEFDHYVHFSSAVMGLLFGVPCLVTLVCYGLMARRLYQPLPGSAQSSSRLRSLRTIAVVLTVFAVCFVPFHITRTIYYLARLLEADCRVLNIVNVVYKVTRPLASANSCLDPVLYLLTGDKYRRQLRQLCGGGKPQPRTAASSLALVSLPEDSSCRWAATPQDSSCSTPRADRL

[14] = target: rat P2Y6 receptor (Rattus norvegicus, UniProt Q63371); experiment: Increase in [Ca2+]i in 1321N1 astrocytoma cells expressing P2Y6 receptor; type: cell-based; conditions: read-out: EC50 of analogue-induced increase in [Ca2+]i, P2Y6; 1321N1 cell transfectants
rat P2Y6 receptor, sequence (Q63371 whole entry): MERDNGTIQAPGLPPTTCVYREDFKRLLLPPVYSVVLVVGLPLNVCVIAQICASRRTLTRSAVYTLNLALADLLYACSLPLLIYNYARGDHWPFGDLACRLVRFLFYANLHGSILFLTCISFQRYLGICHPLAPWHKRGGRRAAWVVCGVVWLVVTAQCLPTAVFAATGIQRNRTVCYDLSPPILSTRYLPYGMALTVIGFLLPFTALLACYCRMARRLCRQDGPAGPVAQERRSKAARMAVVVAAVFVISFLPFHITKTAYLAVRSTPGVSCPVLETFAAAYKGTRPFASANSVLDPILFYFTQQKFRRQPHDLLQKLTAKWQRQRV

[15] = Stability in human blood serum, Method B
[16] = 100 μM substrate, relative to pnp-TMP hydrolysis (100%)
[17] = 100 μM substrate, relative to ATP hydrolysis (100%)

Compound: BP(=O)(OC[C@H]1O[C@@H](n2cnc3c(N)ncnc32)[C@H](O)[C@@H]1O)OP(=O)(O)CP(=O)(O)O (stereo partly drawn) [compound 3, Adenosine-5′-O-(α-boranotriphosphate)-β,γ-CH2]
improvement of chemical stability as compared to 1 ([1]; pH 1.4, 37 °C): ca. 3 fold

Compound: Cc1cn([C@H]2C[C@H](O)[C@@H](COP(=O)(O)Oc3ccc([N+](=O)[O-])cc3)O2)c(=O)[nH]c1=O [pnp-TMP, p-nitrophenylthymidine-5′-monophosphate, reference compound]
100% activity of NPP1 with pnp-TMP as substrate ([2]; 100 μM pnp-TMP): 24 ± 2 nmol p-nitrophenol/min·mg protein
Relative activity of NPP1 [2, 16]: 100%
100% activity of NPP3 with pnp-TMP as substrate ([3]; 100 μM pnp-TMP): 53 ± 4 nmol p-nitrophenol/min·mg protein
Relative activity of NPP3 [3, 16]: 100%

ATPase activity (100%) of NTPDase1 ([4]; 100 μM ATP): 497 ± 38 nmol Pi/min·mg protein
ATPase activity (100%) of NTPDase3 ([5]; 100 μM ATP): 493 ± 21 nmol Pi/min·mg protein
ATPase activity (100%) of NTPDase8 ([6]; 100 μM ATP): 173 ± 18 nmol Pi/min·mg protein
Compound: Nc1ncnc2c1ncn2[C@@H]1O[C@H](COP(=O)(O)OP(=O)(O)OP(=O)(O)O)[C@@H](O)[C@H]1O [ATP, reference compound]

fraction ionized [7]: 91%
Compound: CSc1nc(N)c2ncn([C@@H]3O[C@H](COP(=O)(O)OP(=O)(O)O)[C@@H](O)[C@H]3O)c2n1 [2-MeS-ADP]

Compound: Nc1ncnc2c1ncn2[C@@H]1O[C@H](COP(=O)(O)OP(=O)(O)O)[C@@H](O)[C@H]1O [ADP]
EC50 ([8]; read-out: EC50 at P2Y1R, endogenous agonist ref 1): ~0.1 µM

Compound: BP(=O)(OC[C@H]1O[C@@H](n2cnc3c(N)nc(Cl)nc32)[C@H](O)[C@@H]1O)OP(=O)(O)OP(=O)(O)O (stereo partly drawn) [2-Cl–ATP-α-B, reference compound]
activity at P2Y2R [9]: very weak agonists

Compound: 2-MeS–ATP-α-B [1A]
potency of 1A isomer relative to 1B isomer at P2Y1R [8]: 20 fold

Compound: [BH3-][P+](O)(OC[C@H]1O[C@@H](n2cnc3c(N)nc(SC)nc32)[C@H](O)[C@@H]1O)OP(=O)(O)CP(=O)(O)O (single isomer, unassigned) [4B, 2-MeS–adenosine-5′-O-(α-boranotriphosphate)-β,γ-CH2]
t1/2 of acidic hydrolysis ([1]; KCl/HCl buffer pH 1.4, 37 °C, 31P NMR (2) or HPLC-MS (3B, 4B)): 14.5 h
Relative activity of NTPDase1 [4, 17]: <1%
Relative activity of NTPDase2 [10]: 1.0 ± 0.3%
Relative activity of NTPDase3 [5, 17]: 2.0 ± 1.0%
Relative activity of NTPDase8 [6, 17]: 3.0 ± 07%
agonist activity at P2Y1R [11]: potent P2Y1R agonists; also recorded: active isomer
EC50 ([11]; read-out: EC50 of analogue-induced increase in [Ca2+]i, P2Y1): 17.2 ± 5.3 µM
EC50 [12]: > 100 µM
EC50 [13]: > 100 µM
EC50 [14]: > 100 µM
t1/2 in human blood serum ([15]; Method B, human blood serum and RPMI-1640, 37 °C): 71.9 h

Compound: BP(=O)(OC[C@H]1O[C@@H](n2cnc3c(N)nc(SC)nc32)[C@H](O)[C@@H]1O)OP(=O)(O)CP(=O)(O)O (stereo partly drawn) [compound 4, 2-MeS–adenosine-5′-O-(α-boranotriphosphate)-β,γ-CH2]
enhancement of the metabolic stability of ATP ([15]; human blood serum, half-life vs ATP): ≥ 20 fold

fraction ionized [7]: 91%
Compound: CSc1nc(N)c2ncn([C@@H]3O[C@H](COP(=O)(O)OP(=O)(O)OP(=O)(O)O)[C@@H](O)[C@H]3O)c2n1 [2-MeS–ATP]
